What was measured:
Assay in all cases: MIC by broth microdilution (NCCLS M7-A5)
[1] = system: Pseudomonas aeruginosa MK1184
Serratia marcescens S6 = system: Serratia marcescens S6
[2] = system: Pseudomonas aeruginosa 1973E
[3] = system: Stenotrophomonas malthophilia 1AC736; conditions: Stenotrophomonas maltophilia 1AC736
Acinetobacter sp. J2 = conditions: Acinetobacter baumannii J2
Enterobacter cloacae P99 = system: Enterobacter cloacae P99
[4] = system: Klebsiella pneumoniae CF104
[5] = system: Enterobacter aerogenes B1; conditions: E. aerogenes B1; + compound 323 and sulbactam, 4 mg/L each
[6] = system: Enterobacter aerogenes Zayakosky; conditions: E. aerogenes Zayakosky; + compound 323 and sulbactam, 4 mg/L each
[7] = + 102 + clavulanate, 4 mg/L each
[8] = + 206 + clavulanate, 4 mg/L each
[9] = + 324 + clavulanate, 4 mg/L each

| SMILES | MIC of antibiotic [1, 7] | MIC of antibiotic ([1]; antibiotic alone) | MIC of antibiotic (Serratia marcescens S6; [7]) | MIC of antibiotic (Serratia marcescens S6; antibiotic alone) | MIC of antibiotic [2, 7] | MIC of antibiotic ([2]; antibiotic alone) | MIC of antibiotic [3, 7] | MIC of antibiotic ([3]; antibiotic alone) | MIC of antibiotic (Acinetobacter sp. J2; [7]) | MIC of antibiotic (Acinetobacter sp. J2; antibiotic alone) | MIC of antibiotic (Enterobacter cloacae P99; [7]) | MIC of antibiotic (Enterobacter cloacae P99; antibiotic alone) | MIC of antibiotic [4, 7] | MIC of antibiotic ([4]; antibiotic alone) | MIC of antibiotic ([1]; + 102 + sulbactam, 4 mg/L each) | MIC of antibiotic (Serratia marcescens S6; + 102 + sulbactam, 4 mg/L each) | MIC of antibiotic ([2]; + 102 + sulbactam, 4 mg/L each) | MIC of antibiotic ([3]; + 102 + sulbactam, 4 mg/L each) | MIC of antibiotic (Acinetobacter sp. J2; + 102 + sulbactam, 4 mg/L each) | MIC of antibiotic ([4]; + 102 + sulbactam, 4 mg/L each) | further results |
| --- | --- | --- | --- | --- | --- | --- | --- | --- | --- | --- | --- | --- | --- | --- | --- | --- | --- | --- | --- | --- | --- |
| Nc1nc(C(=NOCc2cc(=O)c(O)cn2O)C(=O)NC2CN(S(=O)(=O)O)C2=O)cs1 (centres unmarked) [Compound 9] | 4 µg/mL | >32 µg/mL | 1 µg/mL | 16 µg/mL | 8 µg/mL | 8 µg/mL | 0.25 µg/mL | 0.5 µg/mL | >32 µg/mL | >32 µg/mL | 32 µg/mL | >32 µg/mL | 0.5 µg/mL | >32 µg/mL |  |  |  |  |  |  |  |
| CC1C(NC(=O)C(=NOCc2cc(=O)c(O)cn2O)c2nsc(N)n2)C(=O)N1S(=O)(=O)O (centres unmarked) [Compound 2] |  | 8 µg/mL |  | >32 µg/mL |  | 8 µg/mL |  | 4 µg/mL |  | 4 µg/mL |  | >32 µg/mL |  | >32 µg/mL |  |  |  |  |  |  | MIC of antibiotic [1, 8]: 16 µg/mL; MIC of antibiotic [3, 8]: 0.5 µg/mL; MIC of antibiotic (Acinetobacter sp. J2; [8]): 16 µg/mL; MIC of antibiotic (Enterobacter cloacae P99; [8]): 16 µg/mL |
| C[C@H]1[C@H](NC(=O)/C(=N\OC(C)(C)C(=O)O)c2csc(N)n2)C(=O)N1S(=O)(=O)O [Aztreonam, aztreonam, reference compound] |  |  | 2 µg/mL |  | 8 µg/mL |  | 4 µg/mL |  | 16 µg/mL |  |  |  | 0.5 µg/mL |  | 16 µg/mL | 2 µg/mL | 4 µg/mL | 8 µg/mL | 4 µg/mL | 1 µg/mL | Minimal Inhibitory Concentration of antibiotic [5]: 8 mg/L; Minimal Inhibitory Concentration of antibiotic [6]: 8 mg/L |
| C[C@H]1[C@H](NC(=O)/C(=N\OCc2cc(=O)c(O)cn2O)c2csc(N)n2)C(=O)N1OCC(=O)O [Compound 22, 2-((3S,4S)-3-{(2Z)-2-(2-amino(1,3-thiazol-4-yl))-3-[(1,5-dihydroxy-4-oxo(2-hydropyridyl))methoxy]-3-azaprop-2-enoylamino}-4-methyl-2-oxoazetidinyloxy)acetic acid] | 4 µg/mL | 8 µg/mL | 0.25 µg/mL | 0.13 µg/mL | 4 µg/mL | 4 µg/mL | 1 µg/mL | 0.5 µg/mL | 4 µg/mL | >32 µg/mL | 8 µg/mL | >32 µg/mL | 0.25 µg/mL | >32 µg/mL |  |  |  |  |  |  |  |
| C[C@H](ON1C(=O)[C@@H](NC(=O)/C(=N\OCc2cc(=O)c(O)cn2O)c2csc(N)n2)[C@@H]1C)C(=O)O [Compound 23, (2S)-2-((3S,4S)-3-{(2Z)-2-(2-amino(1,3-thiazol-4-yl))-3-[(1,5-dihydroxy-4-oxo(2-hydropyridyl))methoxy]-3-azaprop-2-enoylamino}-4-methyl-2-oxoazetidinyloxy)propanoic acid] | 8 µg/mL | 8 µg/mL | 0.25 µg/mL | 0.25 µg/mL | 8 µg/mL | 8 µg/mL |  | 1 µg/mL | 8 µg/mL | 16 µg/mL | 8 µg/mL | >32 µg/mL | 1 µg/mL | >32 µg/mL |  |  |  |  |  |  | MIC of antibiotic [1, 9]: 8 µg/mL; MIC of antibiotic ([1]; + 324 + sulbactam, 4 mg/L each): 8 µg/mL; MIC of antibiotic (Serratia marcescens S6; [9]): 0.25 µg/mL; MIC of antibiotic (Serratia marcescens S6; + 324 + sulbactam, 4 mg/L each): 0.5 µg/mL; MIC of antibiotic [2, 9]: 16 µg/mL; MIC of antibiotic ([2]; + 324 + sulbactam, 4 mg/L each): 16 µg/mL; MIC of antibiotic (Acinetobacter sp. J2; [9]): 8 µg/mL; MIC of antibiotic (Acinetobacter sp. J2; + 324 + sulbactam, 4 mg/L each): 2 µg/mL; MIC of antibiotic (Enterobacter cloacae P99; [9]): 4 µg/mL; MIC of antibiotic (Enterobacter cloacae P99; + 324 + sulbactam, 4 mg/L each): 8 µg/mL; MIC of antibiotic [4, 9]: 1 µg/mL; MIC of antibiotic ([4]; + 324 + sulbactam, 4 mg/L each): 2 µg/mL |
| C[C@H]1[C@H](NC(=O)/C(=N\OCc2cc(=O)c(O)cn2O)c2nccc(N)n2)C(=O)N1S(=O)(=O)O [Compound 21, (3S,4S)-3-{(2Z)-2-(4-aminopyrimidin-2-yl)-3-[(1,5-dihydroxy-4-oxo(2-hydropyridyl))methoxy]-3-azaprop-2-enoylamino}-4-methyl-2-oxoazetidinesulfonic acid] |  | >32 µg/mL |  | 8 µg/mL |  | 8 µg/mL |  | 8 µg/mL |  | >32 µg/mL |  | >32 µg/mL |  | >32 µg/mL | 32 µg/mL | 16 µg/mL | 16 µg/mL | 8 µg/mL | 2 µg/mL | 2 µg/mL | MIC of antibiotic ([1]; + 324 + sulbactam, 4 mg/L each): 32 µg/mL; MIC of antibiotic (Serratia marcescens S6; + 324 + sulbactam, 4 mg/L each): 4 µg/mL; MIC of antibiotic ([2]; + 324 + sulbactam, 4 mg/L each): 16 µg/mL; MIC of antibiotic ([3]; + 324 + sulbactam, 4 mg/L each): 4 µg/mL; MIC of antibiotic (Acinetobacter sp. J2; + 324 + sulbactam, 4 mg/L each): 2 µg/mL; MIC of antibiotic (Enterobacter cloacae P99; + 102 + sulbactam, 4 mg/L each): 32 µg/mL; MIC of antibiotic (Enterobacter cloacae P99; + 324 + sulbactam, 4 mg/L each): 8 µg/mL; MIC of antibiotic ([4]; + 324 + sulbactam, 4 mg/L each): 4 µg/mL |
| CC1C(NC(=O)C(=NOCc2cc(=O)c(O)cn2O)c2csc(NC=O)n2)C(=O)N1S(=O)(=O)O (centres unmarked) [Compound 28] | 32 µg/mL | >32 µg/mL | 16 µg/mL | 8 µg/mL | 16 µg/mL | >32 µg/mL | 8 µg/mL | 8 µg/mL | >32 µg/mL | >32 µg/mL | 32 µg/mL | >32 µg/mL | 2 µg/mL | >32 µg/mL |  |  |  |  |  |  |  |
| C[C@H]1[C@H](NC(=O)/C(=N\OCc2cc(=O)c(O)cn2O)c2nc(N)sc2Cl)C(=O)N1OS(=O)(=O)O [Compound 29, (3S,4S)-3-{(2Z)-2-(2-amino-5-chloro(1,3-thiazol-4-yl))-3-[(1,5-dihydroxy-4-oxo(2-hydropyridyl))methoxy]-3-azaprop-2-enoylamino}-4-methyl-2-oxoazetidinyl hydroxysulfonate] | 8 µg/mL | >32 µg/mL | 1 µg/mL | 32 µg/mL | 8 µg/mL | 4 µg/mL | 0.5 µg/mL | 1 µg/mL | >32 µg/mL | >32 µg/mL | 0.25 µg/mL | >32 µg/mL | 0.5 µg/mL | >32 µg/mL | 4 µg/mL | 8 µg/mL | 8 µg/mL | 1 µg/mL | 2 µg/mL | 2 µg/mL | MIC of antibiotic ([1]; + 323 + sulbactam, 4 mg/L each): 8 µg/mL; MIC of antibiotic (Serratia marcescens S6; + 323 + sulbactam, 4 mg/L each): 8 µg/mL; MIC of antibiotic ([2]; + 323 + sulbactam, 4 mg/L each): 8 µg/mL; MIC of antibiotic ([3]; + 323 + sulbactam, 4 mg/L each): 1 µg/mL; MIC of antibiotic (Acinetobacter sp. J2; + 323 + sulbactam, 4 mg/L each): 2 µg/mL; MIC of antibiotic (Enterobacter cloacae P99; + 102 + sulbactam, 4 mg/L each): 8 µg/mL; MIC of antibiotic (Enterobacter cloacae P99; + 323 + sulbactam, 4 mg/L each): 8 µg/mL; MIC of antibiotic ([4]; + 323 + sulbactam, 4 mg/L each): 2 µg/mL |

From US9346799B2, “Useful combinations of monobactam antibiotics with beta-lactamase inhibitors” (Basilea Pharmaceutica AG, priority 2005, dated 2016)
